Experimental data reported in patent US20250213546A1, “TREATING CANCER WITH SMALL MOLECULES THAT INHIBIT ACSS-2” (DREXEL UNIVERSITY, priority 2022, published 2025).
Where two headings read alike, the source gives them in different places.

Tests used:
hACSS-2 = hACSS-2 (Homo sapiens (Human), UniProt Q9NR19); test: Surface plasmon resonance (SPR) binding to immobilized hACSS-2; conditions: for koff / kon: 1:1 binding model
Experimental: SPR characterization. All binding assays were performed on a ProteOn XPR36 SPR Protein Interaction Array System (Bio-Rad Laboratories, Hercules, CA, USA). The instrument temperature was set at 25° C. for all kinetic analyses. ProteOn GLH sensor chips were preconditioned with two short pulses each (10 s) of 50 mM NaOH, 100 mM HCl, and 0.5% sodium dodecyl […]. Then the system was equilibrated with running buffer (1×PBS pH 7.4, 3% DMSO and 0.005% polysorbate 20). The surface of a GLH sensor chip was activated with a 1:100 dilution of a 1:1 mixture of 1-ethyl-3-(3-dimethylaminopropyl) carbodiimide hydrochloride (0.2 M) and sulfo-N-hydroxysuccinimide (0.05 M). […] Then, after unreacted protein had been washed out, excess active ester groups on the sensor surface were capped by a 5 min injection of 1M ethanolamine HCl (pH 8.0) at a flow rate of 5 μL/min. A reference surface was similarly created by immobilizing a nonspecific protein (IgG b12 anti-HIV-1 gp120; was obtained through the NIH AIDS Reagent Program, Division of AIDS, NIAID, NIH: Anti-HIV-1 gp120 Monoclonal (IgG1 b12) from Dr. Dennis Burton and Carlos Barbas) and was used as a background to correct nonspecific binding. Serial dilutions of hACSS-2 inhibitors were then prepared in the running buffer and injected at a flow rate of 100 μL/min, for a 50 s association phase, followed by up to a 5 min dissociation phase using the “one-shot kinetics” capability of the ProteOn instrument. Data were analyzed using the ProteOn Manager Software version 3.0 (Bio-Rad). The responses from the reference flow cell were subtracted to account for the nonspecific binding and injection artifacts. Experimental data were fitted to a simple 1:1 binding model. Experiments were performed in triplicate to detect kinetic and equilibrium dissociation constants (KD).
Overproduction of hACSS-2 was achieved using a prokaryotic expression system. […] The bacterial expressions were then spun down, the supernatant discarded, and the pellets resuspended. After the cells were lysed via sonication, the sample was subjected to ultracentrifugation, and the clarified lysate was applied to a Talon cobalt resin affinity column (Clonetech Laboratories, Mountain View, CA). The bound protein was eluted from the column using 1×PBS pH 7.4 with 0.3 M imidazole, then dialyzed overnight into 20 mM Tris-HCl pH 8.0, concentrated to 10 mg/mL, aliquoted, and stored at −80° C.

[1] = Human liver microsome stability; assay type: in vitro ADME; conditions: for Human Liver Microsome Stability Remaining(T = 60 min) / Human Liver Microsome Stability Remaining(NCF = 60 min): given as fraction
Experimental: (§1) Metabolic Stability and Plasma Stability. Test compound Working solution: 5 μL of compound stock solution (10 mM in dimethyl sulfoxide (DMSO)) were diluted with 495 μL of DMSO (Working solution concentration: 100 μM, 100% DMSO). Propantheline bromide Working solution: 5 μL of Propantheline bromide stock solution (10 mM in H2O) were diluted with 495 μL of H2O (Working solution concentration: 100 μM, 100% H2O)

Human plasma stability = assay type: in vitro ADME; conditions: both sexes, 37° C., up to 120 min, read-out: Human Plasma Stability T1/2
Experimental: as §1
Human plasma from 3 males and 3 females was obtained. Heparin was used as the anticoagulant. The pooled frozen plasma was thawed in a water bath at 37° C. prior to experiment. Plasma was centrifuged at 4000 rpm for 5 min and the clots were removed if any. Using an Apricot automation workstation, 98 μL/well of blank plasma were added to all 96-well reaction plates. (Blank, T0, T10, T30, T60 and T120). The appointed incubation time points are T0 (0 min), Tn (n=0, 10, 30, 60, 120 min). An Apricot automation workstation was used to add 2 μL/well of working solution (100 μM) to all reaction plates except Blank. (T0, T10, T30, T60 and T120). All reaction plates containing mixtures of compound and plasma were incubated at 37° C. in water bath. The reaction plates were incubated at 37° C., and timer was started. At the end of incubation, 500 μL of stop solution was added and mixed (200 ng/mL tolbutamide and 200 ng/ml labetalol in ACN) to precipitate protein. Each plate was sealed and shaken for 20 minutes. After shaking, each plate was centrifuged at 4000 rpm and 4° C. for 20 minutes. After centrifugation, an Apricot automation workstation was used to transfer 150 μL of supernatant from each reaction plate to its corresponding bioanaylsis plate. Each bioanalysis plate was sealed and shaken for 10 minutes prior to LC-MS/MS analysis. The % remaining of test compound after incubation in plasma was calculated using following equation: Remaining=100×(PAR at appointed incubation time/PAR at T0 time) where PAR is the peak area ratio of analyte versus internal standard (IS).

MDR1 = test: in vitro; conditions: dog, MDCK-MDR1, pH 7.4, Mean % Solution Recovery A to B
Experimental: MDCKI MDR1 cell permeability assessment was performed to mimic the blood brain barrier. MDR1-MDCK I cells were seeded onto […] (PET) in 96-well Corning insert systems at 2.5×10^5 cells/mL until to 4-7 days for confluent cell monolayer formation. The transport buffer in the study was HBSS with 10.0 mM HEPES at pH 7.40+0.05. Test compounds were tested at 2.00 μM bi-directionally in duplicate. […] Final DMSO concentration was adjusted to less than 1%. The plate was incubated for 1.5 hours in CO2 incubator at 37±1° C., with 5% CO2 at saturated humidity without shaking. All samples after mixed with acetonitrile containing internal standard were centrifuged at 3220×g for 10 min. For all samples, 150 μL supernatant solution was diluted with 150 μL ultra-pure water for LC-MS/MS analysis. In addition, the efflux ratio of each compound was also determined. Test and reference compounds were quantified by LC-MS/MS analysis based on the peak area ratio of analyte/IS. After transport assay, Lucifer yellow rejection assay are applied to determine the cell monolayer integrity. Buffers are removed from both apical and basolateral chambers, followed by the addition of 75 μL of 100 μM lucifer yellow in transport buffer and 250 μL transport buffer in apical and basolateral chambers, respectively. […] After 30 minutes incubation, 20 μL of lucifer yellow samples are taken from the apical sides, followed by the addition of 60 μL of Transport Buffer. And then 80 μL of lucifer yellow samples are taken from the basolateral sides.
The apparent permeability coefficient Papp (cm/s) was calculated using the equation: Papp=(dCr/dt)×Vr/(A×C0) where dCr/dt is the cumulative concentration of compound in the receiver chamber as a function of time (μM/s); Vr is the solution volume in the receiver chamber (0.075 mL on the apical side, 0.25 mL on the basolateral side); A is the surface area for the transport, i.e. 0.0804 cm^2 for the area of the monolayer; CO is the initial concentration in the donor chamber (μM). […] Percent of lucifer yellow in basolateral well is calculated using the equation: Where RFUApical and RFUBasolateral are the relative fluorescence unit values of lucifer yellow in the apical and basolateral wells, respectively; VApical and VBasolateral are the volume of apical and basolateral wells (0.075 mL and 0.25 mL), respectively. The % Lucifer Yellow should be less than 1.0.

MDA-MB-231BR cells = test: Clonogenicity assay; assay type: cell-based; conditions: after treatment
Experimental: Triple-negative brain trophic cells MDA-MB-231BR (Center for Cancer Research, National Cancer Institute) were cultured with 10% fetal bovine serum (FBS), 5% 10,000 Units/mL Penicillin-10,000 μg/mL Streptomycin, and 5% 200 mM L-Glutamine. […] For crystal violet staining, 5×10^4 cells were plated in to a 6-well plate and subjected to the treatments as described in the individual figures and then stained with 0.5% crystal violet prepared in a 1:1 methanol-water solution followed by dH2O washes.
To assess clonogenic survival, cells were cultured and detached in their respective growth media, then counted using a hemocytometer. 1,000 cells were plated in triplicate in 6-well plates in their respective growth media and allowed to form colonies. Cells were grown for 14 days. Upon conclusion of growth period, colonies were stained with crystal violet. Colony numbers were quantified based on number of colonies with >40 cells. For clonogenic survival based on drug exposure, 100,000 cells were plated in a 6-well plate, then 24 hours later treated with noted concentration of drug for 48 hours. After 48 hours, cells in each concentration condition were lifted, counted, and plated per the described clonogenic survival protocol and allowed to grow for noted length of time in noted growth media. […] Colony numbers were quantified based on number of colonies with >40 cells.

4T1-BR = test: Ex vivo BCBM mouse brain slice model, 4T1-BR; assay type: cell-based; conditions: bioluminescence
Experimental: (§2) Ex vivo brain slice model. Organotypic hippocampal cultures were prepared as described previously (PMID: 34633392). Briefly, adult mice (6-8 week) or mice after 12 days following intracranial injection were decapitated and their brains rapidly removed into ice-cold (4° C.) sucrose-aCSF composed of the following (in mM): 280 sucrose, 5 KCl, 2 MgCl2, 1 CaCl2, 20 glucose, 10 HEPES, 5 Na+-ascorbate, 3 thiourea, 2 Na+-pyruvate; pH=7.3. Brains were blocked with a sharp scalpel and sliced into 250 μm sections using a McIlwain-type tissue chopper (Vibrotome inc). Four to six slices were placed onto each 0.4 μm Millicell tissue culture insert (Millipore) in six-well plates, 1 ml of medium containing the following: Neurobasal medium A (Gibco), 2% Gem21-Neuroplex supplement (Gemini), 1% N2 supplement (Gibco), 1% glutamine (Invitrogen), 0.5% glucose, 10 U/ml penicillin, and 100 μg/ml streptomycin (Invitrogen), placed underneath each insert. One-third to one half of the media was changed every 2 d. Tumor growth was monitored via bioluminescence imaging on the IVIS 200 system (Perkin Elmer) and results analyzed using Living Image software (Caliper Life Sciences, Waltham, MA, USA). […] Tissues were incubated at 37° C., 5% CO2 for 4 hours and absorbance at 490 nm was measured with Tecan Spark Microplate reader.

MDA-MB-231-BR = test: Ex vivo BCBM mouse brain slice model, MDA-MB-231-BR; assay type: cell-based; conditions: bioluminescence
Experimental: as §2

FASN = FASN expression (immunoblot); assay type: cell-based, human; conditions: BCBM cells
Experimental: ACSS-2 provides Acetyl-CoA for numerous metabolic processes vital for cancer proliferation. The human fatty acid synthase (FASN) is essential for BCBM growth and survival (FIG. 13A), and hACSS-2 does regulate FASN protein expression levels BCBM cells (FIG. 13B).
ACSS2 inhibitors on levels of lipid droplet storage. Briefly, cell lysates from 1-5×10^6 cells were prepared in radioimmune precipitation assay buffer (150 mM NaCl, 1% NP40, 0.5% DOC, 50 mM Tris HCL at pH 8, 0.1% SDS, 10% glycerol, 5 mM EDTA, 20 mM NaF, and 1 mM Na3 VO4) supplemented with 1 μg/ml each of pepstatin, leupeptin, aprotinin, and 200 μg/ml PMSF. Lysates were cleared by centrifugation at 16,000×g for 15 minutes at 4° C. and analyzed by SDS-PAGE and autoradiography with chemiluminescence. Proteins were analyzed by immunoblotting using primary antibodies against Fatty Acid Synthase (FASN) (Cell Signaling) and beta-Tubulin (Cell Signaling) (FIG. 16A).

[2] = read-out: Affinity (KD in μM) for hACSS-2 mean ± SD (n = 3), SPR, one site binding model isotherm, triplicate
[3] = Langmuir isotherm equilibrium fit, mean, n = 3, read-out: KD [μM] equilibrium
[4] = global fit, mean, n = 3, read-out: KD [μM] kinetic/global

hACSS-2, sequence (Q9NR19 whole entry): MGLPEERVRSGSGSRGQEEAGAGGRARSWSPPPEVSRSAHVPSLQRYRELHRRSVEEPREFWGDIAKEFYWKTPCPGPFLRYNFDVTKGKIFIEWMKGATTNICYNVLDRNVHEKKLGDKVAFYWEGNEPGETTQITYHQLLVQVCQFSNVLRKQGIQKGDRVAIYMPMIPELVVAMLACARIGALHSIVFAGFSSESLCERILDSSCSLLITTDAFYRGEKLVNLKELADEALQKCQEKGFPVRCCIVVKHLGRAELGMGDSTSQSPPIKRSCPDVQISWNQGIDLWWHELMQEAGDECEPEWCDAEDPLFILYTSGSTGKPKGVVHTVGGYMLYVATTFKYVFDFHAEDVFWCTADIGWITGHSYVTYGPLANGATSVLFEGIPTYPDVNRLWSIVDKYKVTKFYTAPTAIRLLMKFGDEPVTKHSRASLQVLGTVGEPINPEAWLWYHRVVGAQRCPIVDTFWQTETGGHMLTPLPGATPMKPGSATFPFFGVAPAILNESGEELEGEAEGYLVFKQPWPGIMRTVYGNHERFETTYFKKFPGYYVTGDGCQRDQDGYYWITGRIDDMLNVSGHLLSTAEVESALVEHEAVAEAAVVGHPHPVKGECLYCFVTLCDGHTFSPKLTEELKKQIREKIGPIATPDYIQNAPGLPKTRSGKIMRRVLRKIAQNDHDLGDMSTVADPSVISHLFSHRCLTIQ

O=S(=O)(NCCC(c1ccccc1)c1ccco1)N1CCOCC1 (centres unmarked) [AD-4859]
Kd (hACSS-2; [2]): 52 ± 2 µM

CN1CCC(O)(C(=O)NCCc2ccccc2Oc2ccccc2)CC1 [AD-7346]
koff (hACSS-2; mean, n = 3): 0.399 s⁻¹
kon (hACSS-2; mean, n = 3): 10100 M⁻¹ s⁻¹
Kd (hACSS-2; [3]): 39.8 µM
Kd (hACSS-2; [4]): 49.4 µM
Kd (hACSS-2; [2]): 53 ± 21 µM

O=C(CC1CCNC1)NCCC(c1ccccc1)c1ccccc1 (centres unmarked) [AD-8972]
koff (hACSS-2; mean, n = 3): 0.401 s⁻¹
kon (hACSS-2; mean, n = 3): 2830 M⁻¹ s⁻¹
Kd (hACSS-2; [3]): 124 µM
Kd (hACSS-2; [4]): 149 µM
Kd (hACSS-2; [2]): 116 ± 82 µM

CN1CCN(CCC(=O)N2CCCC(c3ccccc3)(c3ccccc3)C2)CC1 [AD-0029]
Kd (hACSS-2; [2]): 356 ± 108 µM

O=C(O)Cc1ccccc1Nc1c(Cl)cccc1Cl [Diclofenac, reference compound]
Human Liver Microsome Stability Remaining(T = 60 min) [1]: 0.00044
Human Liver Microsome Stability Remaining(NCF = 60 min) [1]: 0.8763

Cc1cccn2c(CC(=O)NCCC(c3ccccc3)c3ccco3)cnc12 (centres unmarked) [AD-3766]
koff (hACSS-2; mean, n = 3): 0.359 s⁻¹
kon (hACSS-2; mean, n = 3): 5010 M⁻¹ s⁻¹
Kd (hACSS-2; [3]): 70.6 µM
Kd (hACSS-2; [4]): 77.6 µM
Kd (hACSS-2; [2]): 67 ± 13 µM
Human Liver Microsome Stability Remaining(T = 60 min) [1]: 0.0005
Human Liver Microsome Stability Remaining(NCF = 60 min) [1]: 0.9639
Human Liver Microsome Stability CLint(liver) ([1]; human liver microsomes, scaled to liver): 1364.4891 mL/min/kg
half-life at 2 µM (Human plasma stability): > 289 min

COCCc1ccc(OCC(O)CNC(C)C)cc1 (centres unmarked) [Metoprolol, reference compound]
recovery at 1.5 h, 2 μM (MDR1): 94.2%

O=C(CCN1CCCC(c2ccccc2)(c2ccccc2)C1)NC1CC1 [AD-2441]
reproductive cell death (clonogenicity) (MDA-MB-231BR cells): confirmed
BCBM growth, 4T1-BR (4T1-BR): suppress BCBM growth
BCBM growth, MDA-MB-231-BR (MDA-MB-231-BR): suppress BCBM growth
FASN expression levels (FASN): downregulates FASN expression levels

C[C@]12CC[C@H]3[C@@H](CCC4=CC(=O)CC[C@@]43C)[C@@H]1CC[C@@H]2O [Testosterone, reference compound]
Human Liver Microsome Stability Remaining(T = 60 min) [1]: 0.06959
Human Liver Microsome Stability Remaining(NCF = 60 min) [1]: 0.8976

CC(C)[N+](C)(CCOC(=O)C1c2ccccc2Oc2ccccc21)C(C)C [Propantheline Bromide, Propantheline bromide, reference compound]
half-life at 2 µM (Human plasma stability): 18.6 min

NC1(C(=O)N2CCCC(c3ccccc3)(c3ccccc3)C2)CC1 [AD-6772]
Kd (hACSS-2; [2]): 80 ± 20 µM
